ChEMBL document CHEMBL1145297, “Synthesis, aerobic cytotoxicity, and radiosensitizing activity of novel 2,4-dinitrophenylamine tethered 5-fluorouracil and hydroxyurea” (Bioorg Med Chem Lett, 2006)
The source made the active and inactive calls. The rule behind the calls is not given here.

How the values were obtained:
[1] = tested on: HT-29; assay: Cytotoxicity against HT29 cell line without 4 Gy [60Co]-induced irradiation by MTT assay relative to control; assay type: cell-based; settings: human
[2] = tested on: HT-29; assay: Inhibition of viability in 4 Gy [60Co] irradiated HT29 cells at 10 uM relative to control; assay type: functional, Homo sapiens
[3] = tested on: HT-29; assay: Radiosensitizing activity in 4 Gy [60Co] irradiated HT29 cells at 2.5 uM; assay type: functional, cell-based; settings: Homo sapiens
[4] = tested on: SP2; assay: Radiosensitizing activity in SP2 cell line; assay type: functional, cell-based; settings: Mus musculus
[5] = tested on: HT-29; assay: Cytotoxicity against 4 Gy [60Co] irradiated HT29 cell line by MTT assay relative to control; assay type: cell-based; settings: human
[6] = tested on: HT-29; assay: Radiosensitizing activity in 4 Gy [60Co] irradiated HT29 cells; assay type: functional, cell-based; settings: Homo sapiens
[7] = tested on: HT-29; assay: Cytotoxicity against HT29 cell line below 2.5 uM; assay type: cell-based; settings: human

`O=c1[nH]cc(F)c(=O)n1CCCNc1ccc([N+](=O)[O-])cc1[N+](=O)[O-]` was tested, and the Activity [1] was “Not Active”, the Activity [2] was 60% and the Activity [3] was “Active”. For the same compound, the Activity [4] was “Active” and the Activity [5] was “Not Active”.
With `NC(=O)NO` [HYDROXYUREA] the Activity [1] was 25% and the Activity [5] was 25%.
In the case of `CCCNc1ccc([N+](=O)[O-])cc1[N+](=O)[O-]`, the Activity [1] is reported as 20%, the Activity [6] is reported as “inactive” and the Activity [5] is reported as 20%.
`O=c1[nH]cc(F)c(=O)[nH]1` [FLUOROURACIL] was tested, and the Activity [1] was 65%, the Activity [7] was “Not Active” and the Activity [6] was “inactive”. The Activity [5] was 65%.
In the case of `NC(=O)NOCCCNc1ccc([N+](=O)[O-])cc1[N+](=O)[O-]`, the Activity [1] is reported as “Not Active”, the Activity [2] is reported as 60% and the Activity [3] is reported as “Active”. The Activity [4] was “Active” and the Activity [5] was “Not Active”.
